Values after ≈ are worked out from the molar mass of the structure shown.
Experiments:
CHO-K1 cells = assay: MTT cytotoxicity assay; assay type: cell-based, Chinese hamster
BEAS-2B cells = assay: MTT cytotoxicity assay; assay type: cell-based, human; conditions: 24 h
[1] = tested on: E. histolytica trophozoites; assay: Cell morphology by confocal microscopy (actin); assay type: cell-based, Entamoeba histolytica; conditions: phalloidin-rhodamine, treatment with IC50
Method: Then, the culture medium was removed, and the adhered cells were fixed with 4% paraformaldehyde for 1 h at 37 °C. The samples were washed three times with 1× PBS and incubated with 1:50 phalloidin–rhodamine (R415, Invitrogen; Carlsbad, CA, USA) for 1 h at 37 °C. Finally, the cells were washed, mounted with VectaShield/DAPI medium (Vector Laboratories; Newark, CA, USA), and observed with a confocal microscope (LSM-700, Zeiss; Oberkochen, Germany).

[2] = tested on: E. histolytica trophozoites (amoebic liver abscess); assay: Amoebic liver abscess (ALA) model, antiparasitic protocol; assay type: in vivo, Mesocricetus auratus
Source text: M. auratus was used as an animal model because the hamster is naturally susceptible to infection by E. histolytica and can develop amoebic colitis or extraintestinal complications such as an ALA [71]. In this context, the hamster can be used to search for new alternative therapeutic agents against amoebiasis. The hamsters were acquired from Charles River Laboratories Inc. (Wilmington, MA, USA) in 2017 by Centro de Investigación y de Estudios Avanzados del Instituto Politécnico Nacional ([…]-IPN). […] Male hamsters (sexually mature and homozygous) weighing 95 ± 5 g and ≈10 weeks old were selected for the experiments. They were maintained in aseptic conditions at 25 ± 1 °C, 50 ± 3% humidity, a 12 h photoperiod, and ad libitum access to a standard diet (LabDiet; Richmond, IN, USA) and water (Figure 5A). The hamsters were housed in polycarbonate boxes (five per box), with an American Iron and Steel Institute (AISI) lid and wood shavings as bedding, in a controlled room of the Animal Production and Experimentation Unit (UPEAL) from […]-IPN (Figure 5A). Additionally, the health state of the hamsters and their adaptation to the new laboratory conditions were evaluated for 15 days to decrease their stress and anxiety levels. This study was carried out according to the Official Mexican Regulations (NOM-062-ZOO-1999) and NC3Rs ARRIVE [60, 72]. The protocol was approved by the Institutional Animal Care and Use Committee (Reg. No. 0183-16). Finally, the hamsters were not subjected to any previous experimental procedure or any additional treatment before beginning the experimental procedures (see File S1, NC3Rs ARRIVE Guidelines Checklist). Compounds that are prohibited and/or not recommended for use in animals by the American Veterinary Medical Association (Guidelines for the Euthanasia of Animals) were not used.
These experiments were performed with three independent biological replicates. For each replicate, twenty-five hamsters were randomly distributed (simple type) into five experimental groups (five animals per group). The sample size was determined based on the Organization for Economic Cooperation and Development (OECD) recommendations that establish the minimum number of individuals required for the tests so as not to sacrifice animals unnecessarily. Laparotomy was performed in aseptic conditions by using depilation, iodine solution, as well as sterile field cloths. Subsequently, an intra-hepatic puncture was made to deliver 1.5 × 10^6 virulent E. histolytica trophozoites in 100 μL of 1× PBS into the left hepatic lobe for ALA induction (Figure 5A-3). The injection site was immediately covered by applying a gel foam pad to maintain hemostasis. The abdominal layers were sutured discontinuously by single vertical stitches using Vicryl synthetic absorbable suture with a triangular pointed half circle needle. Irregular edges or folds in the surgical wound were eliminated to avoid tissue devitalization or possible infections. The development of a hepatic ALA was monitored for 4 days (Figure 5A-4).
(Figure 5B). The compounds were administered by the i.p. route because the peritoneal cavity presents rapid fluid absorption into the bloodstream, and initial biotransformation by the gastrointestinal tract is avoided. […] The hamsters were evaluated 24 h post-treatment to detect any signs of discomfort/pain or toxicity. The humane endpoint criteria used in this study were >20% body weight loss overnight, cachexia, recumbence, lethargy, respiratory distress, inability to reach food and water, lack of grooming, and ulceration around the surgical site, among others. Additionally, the weight of hamsters was determined at the beginning and end of the experiment with an electronic bascule (CS200, Ohaus; Parsippany, NJ, USA), and the ALA volume was calculated based on imaging (Figure 5B-1). […]

[3] = Paraclinical analysis (serum biochemistry, hematic biometry) in ALA hamsters; assay type: in vivo, Mesocricetus auratus
Method: Serum was obtained by centrifugation at 3500 rpm and frozen at −70 °C until analysis. Hematic biometry was performed in a hematology autoanalyzer system (BC-2300, Mindray; Shenzhen, China), and biochemical parameters were made on an automatic medical system (Prestige 24i, Tokyo Boeki; Kanagawa, Japan).

[4] = in vivo
Method: After blood samples were obtained, the hamsters were sacrificed with a lethal dose of sodium pentobarbital, followed by a cervical fracture. They were mounted on a dissecting board for the necropsy. A complete mid-laparotomy was performed to remove the lungs, spleen, heart, liver, and kidneys. An excisional biopsy was performed to recover the ALA lesions for morphometric analysis. The organs and ALA lesions were rinsed with 1× PBS, weighed, and adherent tissue was removed. […] Later, the inclusion protocol was performed to obtain histological sections (3 μm thick) with a rotatory microtome (RM2125-RTS, Leica; Wetzlar, Germany). Tissue slices were stained with hematoxylin-eosin (Merck; Rahway, NJ, USA), mounted on coverslips with Entellan^TM-New (Merck; Rahway, NJ, USA), and observed with optical microscopy (Eclipse 80i, Nikon; Tokio, Japan).

[5] = tested on: E. histolytica trophozoites (virulent HM-1 strain); conditions: 48 h
[6] = tested on: E. histolytica trophozoites; conditions: 48 h; ref [10]; read-out: IC50 E. histolytica trophozoites; cited from earlier work
[7] = tested on: E. histolytica trophozoites (virulent HM-1 strain); assay: microbe, parasite or virus in culture; conditions: Entamoeba histolytica, 48 h, read-out: IC50 HM-1, 48 h, flow cytometry
[8] = MTZ 0.16, KP 31.6, LL 15.6 μg/mL

**Q.** With O=c1c(O)c(-c2ccc(O)cc2)oc2cc(O)cc(O)c12 [KP] as the compound, how does the “biological activity symbol on IC50 CHO-K1” value (CHO-K1 cells; 24 h, MTT) read?
**A.** +/-

**Q.** And the IC50 (CHO-K1 cells; Cricetulus griseus, CHO-K1, 24 h, read-out: IC50 CHO-K1)?
**A.** 70 µg/mL (≈ 245 µM)

**Q.** And the “biological activity symbol on IC50 BEAS-2B” value (BEAS-2B cells)?
**A.** +/-

**Q.** What about the IC50 (BEAS-2B cells; Homo sapiens, BEAS-2B) of the same compound?
**A.** 100 µg/mL (≈ 349 µM)

**Q.** And the actin cytoskeleton alteration [1]?
**A.** disorganized actin microfilaments

**Q.** What about the Edges ([2]; ALA characteristics) of the same compound?
**A.** Irregular and poorly defined

**Q.** And the Leukocyte infiltrate ([2]; ALA characteristics)?
**A.** +/−

**Q.** And the Liquid ([2]; ALA characteristics)?
**A.** +/−

**Q.** And the Morphology ([2]; ALA characteristics)?
**A.** Ovoid

**Q.** What about the “ALA Volume” value ([2]; MRI, i.p. 4 days) of the same compound?
**A.** 738 ± 150 * mm^3

**Q.** And the “MRI T1 signal of ALA” value ([2]; T1)?
**A.** Intermediate intensity

**Q.** And the “MRI T2 signal of ALA” value ([2]; T2)?
**A.** hypointense

**Q.** What about the “ALA Weight” value ([2]; i.p. 4 days, KP 5, LL 10, MTZ 10 mg/kg/day) of the same compound?
**A.** 0.86 ± 0.15 g

**Q.** What about the Erythrocytes ([3]; blood, ALA hamsters, i.p. 4 days) of the same compound?
**A.** 6.8 ± 0.3 x10 6/mm3

**Q.** And the Band neutrophils ([3]; in vivo)?
**A.** 2 ± 1%

**Q.** What about the Basophils ([3]; in vivo) of the same compound?
**A.** 0%

**Q.** And the Eosinophils ([3]; in vivo)?
**A.** 0%

**Q.** What about the Immature forms ([3]; in vivo) of the same compound?
**A.** 0%

**Q.** What about the Lymphocytes ([3]; in vivo) of the same compound?
**A.** 39 ± 12%

**Q.** What about the Monocytes ([3]; in vivo) of the same compound?
**A.** 0%

**Q.** And the Segmented neutrophils ([3]; in vivo)?
**A.** 60 ± 11%

**Q.** What about the “ALT (GPT)” value ([3]; in vivo, ip) of the same compound?
**A.** 60 ± 10 U/L

**Q.** What about the Albumin ([3]; in vivo, ip) of the same compound?
**A.** 1.7 ± 0.2 g/dL

**Q.** And the Alkaline phosphatase ([3]; in vivo, ip)?
**A.** 349 ± 38 U/L

**Q.** And the Cholesterol ([3]; in vivo, ip)?
**A.** 164 ± 43 mg/dL

**Q.** What about the Creatinine ([3]; in vivo, ip) of the same compound?
**A.** 0.45 ± 0.1 mg/dL

**Q.** What about the Direct bilirubin ([3]; in vivo, ip) of the same compound?
**A.** 0.37 ± 0.07 mg/dL

**Q.** And the GGT ([3]; in vivo, ip)?
**A.** 9.3 ± 5.5 U/L

**Q.** What about the Glucose ([3]; in vivo, ip) of the same compound?
**A.** 152 ± 11 mg/dL

**Q.** And the Hematocrit ([3]; in vivo, ip)?
**A.** 48.8 ± 0.5%

**Q.** What about the Hemoglobin ([3]; in vivo, ip) of the same compound?
**A.** 16.5 ± 0.2 g/dL

**Q.** And the Indirect bilirubin ([3]; in vivo, ip)?
**A.** 0.01 ± 0.0 mg/dL

**Q.** And the MCH ([3]; in vivo, ip)?
**A.** 24 ± 0.7 pg

**Q.** What about the MCHC ([3]; in vivo, ip) of the same compound?
**A.** 33 ± 0.1 g/dL

**Q.** And the MCV ([3]; in vivo, ip)?
**A.** 72 ± 2.3 fL

**Q.** And the MPV ([3]; in vivo, ip)?
**A.** 7.25 ± 0.5 fL

**Q.** And the PCT ([3]; in vivo, ip)?
**A.** 0.4 ± 0.2%

**Q.** What about the PDW ([3]; in vivo, ip) of the same compound?
**A.** 9.15 ± 1.2 fL

**Q.** What about the Platelets ([3]; in vivo, ip) of the same compound?
**A.** 537 ± 266 x106/μL

**Q.** And the RDW-SD ([3]; in vivo, ip)?
**A.** 42.4 ± 0.3 fL

**Q.** And the Total bilirubin ([3]; in vivo, ip)?
**A.** 0.38 ± 0.07 mg/dL

**Q.** What about the Total protein ([3]; in vivo, ip) of the same compound?
**A.** 5.2 ± 0.2 g/dL

**Q.** What about the Triglycerides ([3]; in vivo, ip) of the same compound?
**A.** 475 ± 28 mg/dL

**Q.** And the Urea ([3]; in vivo, ip)?
**A.** 41.6 ± 4 mg/dL

**Q.** And the “leukocytes (mild leukocytosis)” value ([3]; in vivo, ip)?
**A.** 14,800 ± 700 /mm^3

**Q.** What about the Heart largest diameter [4] of the same compound?
**A.** 1.06 ± 0.08 cm

**Q.** And the Heart weight [4]?
**A.** 0.38 ± 0.1 g

**Q.** And the Kidneys largest diameter [4]?
**A.** 1.2 ± 0.1 cm

**Q.** And the Kidneys weight [4]?
**A.** 0.49 ± 0.04 g

**Q.** What about the Liver largest diameter [4] of the same compound?
**A.** 3.88 ± 0.11 cm

**Q.** What about the Liver weight [4] of the same compound?
**A.** 5.9 ± 0.8 g

**Q.** What about the Lungs largest diameter [4] of the same compound?
**A.** 2.5 ± 0.05 cm

**Q.** What about the Lungs weight [4] of the same compound?
**A.** 0.74 ± 0.06 g

**Q.** What about the Spleen largest diameter [4] of the same compound?
**A.** 3.7 ± 0.1 cm

**Q.** And the Spleen weight [4]?
**A.** 0.36 ± 0.05 g

**Q.** And the “biological activity symbol on IC50 HM-1” value [5]?
**A.** +

**Q.** What about the apoptotic trophozoites [5, 8] of the same compound?
**A.** 8.2%

**Q.** And the necrotic trophozoites [5, 8]?
**A.** 45.2%

**Q.** What about the “decrease of size and granularity of the cell population” value ([5]; MTZ 0.16, KP 31.6, LL 15.6 μg/mL, vs Vh) of the same compound?
**A.** 55%

**Q.** What about the Survival rate (ALA hamsters, i.p. 4 days) of the same compound?
**A.** 100%

**Q.** And the Toxicity signs (in vivo, ip)?
**A.** None

**Q.** What about the IC50 [6] of the same compound?
**A.** 27.7 µM

**Q.** And the IC50 [7]?
**A.** 31.6 µg/mL (≈ 110 µM)
